Experimental findings from patent EP1914304A1 (priority 1998, dated 1999) are described below.

Molecules are shown by their SMILES. pIC50: −log10 of the molar value.

What all share (type): cell-based, baby hamster
In test [1] the test system is ts13 BHK tk- cells transfected with pCMV:30 (HSV-1 TK mutant 30). In words: Cell killing by GCV and ACV, Alamar Blue viability (ED50). The following applies: Mesocricetus auratus, 96 h; effective dose for 50% cell killing, after 4 days on nucleoside analog, pooled G418 resistant clones. How it is done:
(§1) Briefly, the cell transfections are performed as follows. Approximately 5 x 10^5 ts13 BHK tk cells (ATCC CRL-1632) are plated on 100mm dishes in DMEM + 10% calf serum. For each transfection 1 µg of pSV2neo and 10µg of a pCMV construct (pCMV, pCMV:TK-wrong (HSVTK in the wrong orientation relative to the promoter), pCMV:HSVTK, pCMV:30, pCMV:75 or pCMV:132 DNA) in 0.25M CaCl2 are mixed with 0.5ml 2 x BBS (see Chen and Okayama) and preincubated at 37°C at 2.5% CO2 for […]. The CaCl2/DNA mix is added dropwise to the plates and mixed in well. After a 24 hour incubation at 37°C in a 2.5% CO2 wet incubator, the cells are rinsed twice with Dulbecco PBS minus Ca/Mg and fed with fresh DMEM + 10% calf serum. Plates are incubated at 37°C with 6% CO2. After 72 hours post-transfection the cells are split 1:3 and plated in DMEM + 10% calf serum containing G418 at 600µg/ml.
(§2) The cells are selected on G418 (600µg/ml) at 37°C for 17 days. […]. Approximately 30-40 clones are selected in this manner for each transfected DNA containing a tk gene in the correct orientation. The pCMV and pCMV:TK-wrong transfections yielded between 130 and 140 clones each. G418 resistant clones are harvested, pooled and plated at a density of 2000 cells/well in 100µl DMEM + 10% calf serum and 200µg/ml G418 + 6% CO2 in 96 well microtiter plates. […]. After three days in the presence of the nucleoside analog, Alamar Blue is added and 6 hours later the plates are scanned using a fluorometer as according to the manufacturer's protocol (Alamar Biosciences, Inc., Sacramento, CA). The plates are incubated a further 24 hours at 37°C and scanned again.
(§3) Determination of the fluorescence level of cells incubated in the presence of Alamar Blue directly relates to cell viability.
On the technique in general: Alamar Blue is a resazurin reagent that responds to reducing activity.

Test [2] relates to ts13 BHK tk- cells transfected with pCMV:132 (HSV-1 TK mutant 132). The description is as above. Particulars: Mesocricetus auratus, 96 h; effective dose for 50% cell killing, after 4 days on nucleoside analog, pooled G418 resistant clones. How it is done: as §1, §2, §3
Test [3] deals with ts13 BHK tk- cells transfected with pCMV:75 (HSV-1 TK mutant 75). The description is as above. Particulars: Mesocricetus auratus, 96 h; effective dose for 50% cell killing, after 4 days on nucleoside analog, pooled G418 resistant clones. How it is done:
as §1, §2, §3

For test [4], the system named is ts13 BHK tk- cells transfected with pCMV:HSVTK (wild-type HSV-1 TK). The test is described as above. Particulars: Mesocricetus auratus, 96 h; effective dose for 50% cell killing, after 4 days on nucleoside analog, pooled G418 resistant clones. How it is done:
as §1, §2, §3

Test [5] has as its system BHK tk- cells transfected with pREP8D7:dualGFP expressing TK mutant SR39. In words: ACV kill curves of transfectant pools. Particulars: Mesocricetus auratus, Table VII. An excerpt: (§4) The seven mutants were subcloned into the mammalian expression vector, pREP8D7:dualGFP. This vector contains a constitutive metallothionin promoter, which drives the expression of green flourescent protein (GFP), and an RSV LTR promoter, which stimulated expression of the TK mutants. The vector also contains a histidinol resistance gene for selection of transformants. Purified vector DNA of these constructs was used to transfect BHK tk- cells by electroporation. The transfectants were selected by resistance to histidinol and sorted using FACS analysis for GFP expression. Pools of transfectants were then assayed for sensitivity to GCV or ACV over a range of prodrug doses. […] Table VIII illustrates the IC50 values from Rat C6 kill curves with the SR11, SR26, and SR39 mutants.

Test [6] deals with BHK tk- cells transfected with pREP8D7:dualGFP expressing TK mutant 75. In words: ACV kill curves of transfectant pools. Particulars: Mesocricetus auratus, Table VII.
Excerpt: as §4

The subject of test [7] is BHK tk- cells transfected with pREP8D7:dualGFP expressing TK mutant SR11. In words: ACV kill curves of transfectant pools. Particulars: Mesocricetus auratus, Table VII.
Excerpt: as §4

Test [8] relates to BHK tk- cells transfected with pREP8D7:dualGFP expressing wild-type TK. In words: ACV kill curves of transfectant pools. Particulars: Mesocricetus auratus, Table VII.
Excerpt: as §4

The subject of test [9] is BHK tk- cells transfected with pREP8D7:dualGFP expressing TK mutant SR26. In words: ACV kill curves of transfectant pools. The following applies: Mesocricetus auratus, Table VII.
Excerpt: as §4

With `Nc1nc2c(ncn2COCCO)c(=O)[nH]1` [acyclovir], the pIC50 in test [1] is 4.74; in test [2] it was 4.60; in [3], 5.90; in test [4] it was 4.60; in test [5], 7.52; in test [6], 7.22. Further, the pIC50 in [7] was 7.60; in test [8], 6.70; in test [9], 7.46.

What is called pIC50 is −log10 of the IC50, conventionally taken in molar units. The low end stands for a high IC50, the high end for a low IC50.
